4 compounds from patent publication US20070105875A1, “Fungicidal mixtures” (priority 2004, published 2007) can be followed below.

The subject of the assay is Corticium sasakii (syn. Rhizoctonia solani). Briefly: Activity against sheath blight on rice caused by Corticium sasakii (protective spray test on potted rice plants). The settings on record: individual active compound, rice cultivar Tai-Nong 67, evaluation after 11 days, untreated control 90% infection. It is filed as in vivo. How it is done:
The active compounds, separately or jointly, were prepared as a stock solution with 0.25% by weight of active compound in acetone or DMSO. 1% by weight of the emulsifier Uniperol® EL (wetting agent having emulsifying and dispersing action based on ethoxylated alkylphenols) was added to this solution, and the solution was diluted with water to the desired concentration.
Activity Against Sheath Blight on Rice Caused by Corticium sasakii (syn. Rhizoctonia solani)
Pots of rice plants of the cultivar “Tai-Nong 67” were sprayed to runoff point with an aqeuous suspension having the concentration of active compound stated below. The next day, oat grains infected with Corticium sasakii were placed into the pots (in each case 5 grains per pot). The plants were then placed in a chamber at 26° C. and maximum atmospheric humidity. After 11 days, the sheath blight on the untreated but infected control plants had developed to such an extent that the infection could be determined visually in %.
Evaluation is carried out by determining the infected leaf areas in percent. These percentages were converted into efficacies.
The efficacy (E) is calculated as follows using Abbot's formula: E=(1−α/β)·100 α corresponds to the fungicidal infection of the treated plants in % and β corresponds to the fungicidal infection of the untreated (control) plants in %
An efficacy of 0 means that the infection level of the treated plants corresponds to that of the untreated control plants; an efficacy of 100 means that the treated plants are not infected.
The expected efficacies of the mixtures of active compounds are determined using Colby's formula [R. S. Colby, Weeds 15, 20-22 (1967)] and compared with the observed efficacies.
Colby's Formula: E=x+y−x·y/100 • E expected efficacy, expressed in % of the untreated control, when using the mixture of the active compounds A and B at the concentrations a and b • x efficacy, expressed in % of the untreated control, when using active compound A at the concentration a • y efficacy, expressed in % of the untreated control, when using active compound B at the concentration b

On to `CC1CCN(c2c(-c3c(F)cc(F)cc3F)c(Cl)nc3ncnn23)CC1` [I, 5-chloro-7-(4-methylpiperidin-1-yl)-6-(2,4,6-trifluorophenyl)-[1,2,4]triazolo[1,5-a]pyrimidine], for which the “Efficacy in % of the untreated control” value (1 ppm in the spray liquor) came to 33%. Same read-out and setting: the result for `CC1CCN(c2c(-c3c(F)cccc3Cl)c(Cl)nc3ncnn23)CC1` [A] reads 0%. In the case of `CO/N=C(/C(=O)OC)c1ccccc1COc1ccccc1C` [II (kresoxim-methyl), methyl methoxyimino-(2-o-tolyloxymethylphenyl)acetate], the “Efficacy in % of the untreated control” value (1 ppm in the spray liquor) was found to be 0% and the “Efficacy in % of the untreated control” value (4 ppm in the spray liquor) was 0%. Regarding `C[C@H](Nc1c(-c2c(F)cc(F)cc2F)c(Cl)nc2ncnn12)C(F)(F)F` [B], under “1 ppm in the spray liquor”, the “Efficacy in % of the untreated control” value is listed as 0%.
